Reference: patent publication EP4772507A1, “AZAINDOLE COMPOUND AND MEDICAL DRUG” (Nippon Shinyaku Co., Ltd., priority 2023, dated 2025)

Experiments:
[1] = Central nervous system (CNS) penetration study in mice; assay type: in vivo; conditions: female, BALB/cCrSlc, mouse, ip, 30 mg/kg intraperitoneally, three hours later, cerebrum and plasma by LC-MS/MS, read-out: Brain-to-plasma concentration ratio (Kp value)
Procedure: To evaluate the central nervous system (CNS) penetration of a test substance, a central nervous system penetration study was conducted using mice.
Six-week-old female BALB/cCrSlc mice (Japan SLC) were used. The test substance suspended in 0.5% methylcellulose was intraperitoneally administered to mice at a dose of 30 mg/kg. Three hours later, blood was collected from the abdominal vena cava under isoflurane anesthesia, and plasma was obtained by centrifugation. After exsanguination from the abdominal vena cava, the cerebrum was collected.
The drug concentrations of the collected plasma and cerebrum were measured by LC-MS/MS. To determine the brain penetration of the drug, the brain-to-plasma concentration ratio (Kp value) was calculated.

[2] = target: T1, C-terminal catalytic domain of MALT1 (amino acid residues 329-824) (Homo sapiens, UniProt Q9UDY8); experiment: MALT1 protease inhibitory activity (enzyme activity inhibition assay, fluorogenic substrate); assay type: biochemical; conditions: substrate Ac-Leu-Arg-Ser-Arg-AMC 50 µM; 30°C for 2 hours; fluorescence
T1 construct: C-terminal catalytic domain of MALT1 (amino acid residues 329-824)
T1 sequence (Q9UDY8 329-824): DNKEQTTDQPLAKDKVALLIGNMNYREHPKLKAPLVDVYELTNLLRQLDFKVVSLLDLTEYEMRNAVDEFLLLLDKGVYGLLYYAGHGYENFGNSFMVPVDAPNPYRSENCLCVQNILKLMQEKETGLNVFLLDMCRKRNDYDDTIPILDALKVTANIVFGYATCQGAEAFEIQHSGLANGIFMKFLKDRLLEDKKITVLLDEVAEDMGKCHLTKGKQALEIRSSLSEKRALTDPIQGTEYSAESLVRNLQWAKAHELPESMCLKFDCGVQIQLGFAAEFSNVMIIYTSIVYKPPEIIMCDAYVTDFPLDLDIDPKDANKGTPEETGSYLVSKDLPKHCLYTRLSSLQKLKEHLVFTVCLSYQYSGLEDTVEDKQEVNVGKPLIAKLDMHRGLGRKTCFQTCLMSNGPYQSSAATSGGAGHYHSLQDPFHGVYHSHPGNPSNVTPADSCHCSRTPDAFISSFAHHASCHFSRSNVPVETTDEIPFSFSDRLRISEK
In short: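 Human MALT1 catalytic domain (residues 329-824) with Ac-Leu-Arg-Ser-Arg-AMC at 50 µM final, pH 7.5 Tris/HEPES buffer with 0.8 M Na citrate, DTT and CHAPS. Compounds at 0.1 to 10000 nM final, n = 2; reaction 2 h at 30°C. Fluorescence (ex 380/em 460 nm) fitted to a 2-parameter logistic model for IC50.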

SU-DHL-4 cell lines = experiment: Proliferation inhibition test, GCB-DLBCL cell line SU-DHL-4 (negative control line); assay type: cell-based; conditions: Homo sapiens; SU-DHL-4 (GCB-DLBCL, NF-κB pathway-independent, negative control); 96 hours; Cell Counting Kit-8; read-out: Proliferation inhibitory activity against SU-DHL-4 IC50
In short: (§1)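 Cells exposed 96 h at 37 °C to compound at final 10–10,000 nM: OCI-Ly3 (ABC-DLBCL, NF-κB-dependent, IMDM/10% FBS) and SU-DHL-4 (GCB-DLBCL, NF-κB-independent negative control, RPMI-1640/10% FBS). Viability by CCK-8 absorbance at 450 nm after 4 h; IC50 from 2-parameter logistic regression.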

OCI-Ly3 cell lines = experiment: Proliferation inhibition test, ABC-DLBCL cell line OCI-Ly3; assay type: cell-based; conditions: Homo sapiens; OCI-Ly3 (ABC-DLBCL, NF-κB pathway-dependent); 96 hours; Cell Counting Kit-8; read-out: Proliferation inhibitory activity against OCI-Ly3 IC50
In short: as §1

[3] = test system: HEK293/API2-MALT1/NF-κB reporter cells; experiment: Inhibition of reporter activity in HEK293/API2-MALT1/NF-κB reporter cells; assay type: cell-based; conditions: Homo sapiens, 24 hours with test substance, One-glo luminescence
In short: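 HEK293 cells with constitutive NF-κB activation by API2-MALT1 fusion, carrying an NF-κB reporter; 293T/CMV reporter cells served as negative control. Cells seeded 24 h, then exposed to compound at final 10,000, 1,000, 100 and 10 nM for 24 h at 37 °C; luminescence read with One-glo, IC50 by non-linear regression.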

Structure (SMILES) | Kp at 3 h [1] | IC50 [2] [nM] | IC50 (SU-DHL-4 cell lines) [nM] | IC50 (OCI-Ly3 cell lines) [nM] | IC50 [3] [nM]
CCCn1cc(C(=O)c2cnn(-c3cncc4c(F)cccc34)c2C(F)(F)F)c2cc(Cl)c(-c3ncccn3)nc21 [Example 26, [5-chloro-1-propyl-6-(pyrimidin-2-yl)-1H-pyrrolo[2,3-b]pyridin-3-yl][1-(8-fluoroisoquinolin-4-yl)-5-(trifluoromethyl)-1H-pyrazol-4-yl]methanone] | 0.27 | 51 | 1400 | 140 | 110
Cn1cc(C(=O)c2cnn(-c3cccc4nnsc34)c2C(F)(F)F)c2cc(Cl)c(-n3nccn3)nc21 [Example 28, [1-(1,2,3-benzothiadiazol-7-yl)-5-(trifluoromethyl)-1H-pyrazol-4-yl][5-chloro-1-methyl-6-(2H-1,2,3-triazol-2-yl)-1H-pyrrolo[2,3-b]pyridin-3-yl]methanone] | 1.75 | 24 | > 10000 | 610 | 440
Cn1cc(C(=O)c2cnn(-c3cccc4nnsc34)c2C(F)(F)F)c2cc(Cl)c(-c3ncccn3)nc21 [Example 29, [1-(1,2,3-benzothiadiazol-7-yl)-5-(trifluoromethyl)-1H-pyrazol-4-yl][5-chloro-1-methyl-6-(pyrimidin-2-yl)-1H-pyrrolo[2,3-b]pyridin-3-yl]methanone] | 0.98 | 17 | > 10000 | 1000 | 220
